The results in this text go back to US20250230226A1, “PLXDC1/PLXDC2 ACTIVATORS AND THEIR USE IN THE TREATMENT OF BLOOD VESSEL DISORDERS” (THE REGENTS OF THE UNIVERSITY OF CALIFORNIA, priority 2019, published 2025).

Assay [1] relates to CT26.CL25 colon cancer tumor endothelial cells. As to the kind of experiment: Colon CT26 ex vivo model of tumor angiogenesis. Particulars: for 48 hrs (morphology observations after 48 hours): Conc. 40 μm; for cytotoxicity at 40 µM: Mus musculus, Endothelial cell, 48 h, read-out: Cell death. Type of assay: cell-based, mouse. As to the method:
An ex vivo tumor angiogenesis model was developed to test the efficacy of anti-cancer candidate agents. The following protocol describes the Ex Vivo Tumor Angiogenesis Model.
• 1. The day before the experiment, all necessary tools were sprayed with 70% ethanol and sterilized under UV light overnight, including blade, dissecting and micro-dissecting scissors and […]. 24-well dishes were placed at 4° C. to pre-chill plates and Matrigel was thawed, 24 hours before tumor dissection. • 2. 70% ethanol was sprayed on working bench. Two sterile petri dishes were prepared with 10 ml sterile PBS. The following steps 3 and 4 are necessary for mouse tumor models. For fresh human tumor, steps 3 and 4 are skipped. • 3. The tumor-bearing mice were euthanized. 70% ethanol was sprayed on the mouse and the tumor was removed using sterilized dissecting tools (avoid the fur). The tumor was rinsed in petri dish with sterile PBS to remove ethanol and fur. The tumor was transferred to a new petri dish with PBS for dissection. The dish is placed on ice. • 4. Pre-chilled sterile pipet tips were used to seed regular Matrigel in 24 well plates on ice. Matrigel (30 μl) was dropped in the middle of each well without touching the edge of the well (avoid introducing bubbles if possible). • 5. The tumor was cut in halves using the sterile blade. Healthy tumor tissue that is not necrotic and is within the tumor capsule was identified and isolated. The healthy tumor tissue was cut into small pieces. For instance, a suitable size for the tumor tissue is 0.5 mm (H)×0.5 mm (L)×0.3 mm (D) with a total volume of 0.075 mm^3. • 6. Each tumor piece was gently transferred and embedded in the Matrigel drop in the 24-well plate. The embedded piece was placed in the bottom and middle of each Matrigel drop. The plate was kept on ice all the time. • 7. After seeding the tumor pieces, plates were incubated in a 37° C. cell culture incubator without medium for 10 minutes in order for the Matrigel to solidify. • 8. Endothelial Growth Medium (0.5 ml) was added to each well and incubated at 37° C. with 5% CO2. Treatment was not added until the new endothelial cells was grown out of the tumor or were larger than 3 mm in diameter. This usually takes 4 days for the LL2 Lewis lung cancer model and 7 days for the CT26 colon cancer model. For human tumor models, the growth time is typically 2-3 weeks, depending on the tumor type. Media was changed every 4 days during prolonged culture. Typically, when the tumor tissue grows to 2 mm in diameter, it was good for drug testing. A size of about 3 mm in diameter can make visualization easier. • 9. When the assay was ready to be analyzed for cell death (e.g., 48 hours after drug addition), the dye mixture was prepared by mixing 6 μl of green dye to stain live cells (5 mg/ml Fluorescein diacetate or FDA in DMSO) with 30 μl of red dye (2.5 mg/ml Propidium iodide or PI in PBS) to stain dead cells in an Eppendorf tube. The FDA dye needs to be stored frozen in a −20° C. freezer because it has a labile ester bond. • 10. 1 μl of the dye mixture was added to each well of the 24-well dish. It is usually preferred to do one 24-well dish at a time given the amount of time needed to take pictures (the green dye is not as stable in the cells in the long term). • 11. The dish was gently rocked a few times to mix the dye with the media in the wells and incubate the dish at 37° C. for 10 min (too long incubation can make the green signal too intense). • 12. Each well was washed with 0.5 ml of sterile PBS and then 0.5 ml of phenol red free SFM was added to each well. Alternatively 0.5 ml of regular Endothelial Cell Growth Media can be added to each well if this well needs to be continuously maintained after the experiment. • 13. An inverted microscope using the 2× objective lens was used to observe morphological changes in the experimental wells. • 14. […]

In assay [2] the test system is LL/2 lung cancer tumor endothelial cells. As to the kind of experiment: Lung LL2 ex vivo model of tumor angiogenesis. In kind it is cell-based, mouse. The following applies: for 48 hrs (morphology observations) / Cell death: 40 μm; for 48 hrs (morphology observations): LL/2 tumor endothelial cells; for Cell death: drug treatment for two days, ratio of red area to total endothelial cell area. In a few lines:
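Live/dead imaging with FDA and PI, taken e.g. 48 h post-drug under fixed channel settings, measures treatment effects on endothelial cells sprouting from Lewis lung tumor explants. Explants were seeded in Matrigel drops and grown ~4 days in endothelial growth medium, 37 °C, 5% CO2, before dosing.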

In the case of `CCc1ccc(S(=O)(=O)c2cnc3ccc(OC(F)(F)F)cc3c2-n2cncn2)cc1` [Compound 51], in assay [1], the “48 hrs (morphology observations after 48 hours)” value was “*** (100% of endothelial cells vesicularize in cell shape)” and the cytotoxicity at 40 µM turned out to be 20%. In assay [2], the “48 hrs (morphology observations)” value is “**** (100% of endothelial cells vesicularize in cell shape and look flattened in morphology (indicating disintegration of the cell body))”; the Cell death is recorded as 100%.

Take `CCOC(=O)c1ccc2ncc(S(=O)(=O)c3ccc(CC)cc3)c(N3CCCN(CCN(CC)CC)CC3)c2c1` [Compound 131]: in assay [1], the “48 hrs (morphology observations after 48 hours)” value is “** (more than 50% but less than 100% of endothelial cells vesicularize in cell shape)” and the cytotoxicity at 40 µM worked out at 50%.

As for `COc1ccc(S(=O)(=O)c2cnc3ccc([N+](=O)[O-])cc3c2NN2CCN(C)CC2)cc1` [Compound 94], in assay [1], the “48 hrs (morphology observations after 48 hours)” value was found to be 0 and the cytotoxicity at 40 µM was found to be 0%. Further, the Cell death in assay [2] is recorded as 20%.

Consider `CCCCOc1ccc(S(=O)(=O)c2cnc3ccc(C(=O)OCC)cc3c2N2CCCN(C)CC2)cc1` [Compound 158], for which, in assay [1], the “48 hrs (morphology observations after 48 hours)” value is “**** (100% of endothelial cells vesicularize in cell shape and look flattened in morphology (indicating disintegration of the cell body))”. The cytotoxicity at 40 µM was determined as 100% in assay [1] and 100% in assay [2] (Mus musculus, Endothelial cell, 48 h, read-out: Cell death). Moreover, the “48 hrs (morphology observations)” value in assay [2] was “**** (100% of endothelial cells vesicularize in cell shape and look flattened in morphology (indicating disintegration of the cell body))”.

Turning to `CCCCOc1ccc(S(=O)(=O)c2cnc3ccc(C(=O)NC(C)C)cc3c2N2CCCN(C)CC2)cc1` [Compound 192], in assay [1], the “48 hrs (morphology observations after 48 hours)” value came out at 0 and the cytotoxicity at 40 µM is 10%. For the same molecule, in assay [2], the “48 hrs (morphology observations)” value was “*** (more than 50% but less than 100% of endothelial cells vesicularize in cell shape)” and the Cell death is 60%.

Regarding `COc1ccc(S(=O)(=O)c2cnc3ccc(OC(F)(F)F)cc3c2N2CCC(O)(c3cccc(OC)c3)CC2)cc1` [Compound 146], in assay [1], the “48 hrs (morphology observations after 48 hours)” value was found to be 0 and the cytotoxicity at 40 µM was 0%.

Turning to `CCc1ccc(S(=O)(=O)c2cnc3ccc(OC(F)(F)F)cc3c2N2CCC(O)(c3ccc(OC)cc3)CC2)cc1` [Compound 145], in assay [1], the “48 hrs (morphology observations after 48 hours)” value is listed as 0 and the cytotoxicity at 40 µM is 30%.

With `CN1CCCN(c2c(S(=O)(=O)c3ccc([N+](=O)[O-])cc3)cnc3ccc(OC(F)(F)F)cc23)CC1` [Compound 60], in assay [1], the “48 hrs (morphology observations after 48 hours)” value was 0 and the cytotoxicity at 40 µM amounted to 5%.

In the case of `CCOC(=O)c1ccc2ncc(S(=O)(=O)c3ccc(OC)cc3)c(N3CCCN(CCN(CC)CC)CC3)c2c1` [Compound 139], in assay [1], the “48 hrs (morphology observations after 48 hours)” value is reported as 0 and the cytotoxicity at 40 µM is 40%.

In the case of `CCOC(=O)c1ccc2ncc(S(=O)(=O)c3ccc(OC)cc3)c(N3CCC(OCCN(CC)CC)CC3)c2c1` [Compound 140], in assay [1], the “48 hrs (morphology observations after 48 hours)” value is listed as “** (more than 50% but less than 100% of endothelial cells vesicularize in cell shape)” and the cytotoxicity at 40 µM was 60%.

For `CCOC(=O)c1ccc2ncc(S(=O)(=O)c3ccc(CC)cc3)c(N3CCCC(O)C3)c2c1` (stereo not shown) [Compound 135], in assay [1], the “48 hrs (morphology observations after 48 hours)” value came out at 0 and the cytotoxicity at 40 µM came to 30%.

As to `CCc1ccc(S(=O)(=O)c2cnc3ccc(OC(F)(F)F)cc3c2N2CCC(O)(c3ccc4c(c3)OCO4)CC2)cc1` [Compound 147], in assay [1], the “48 hrs (morphology observations after 48 hours)” value is given as 0 and the cytotoxicity at 40 µM was found to be 0%.

`CCOC(=O)c1ccc2ncc(S(=O)(=O)c3ccc(CC)cc3)c(N3CCC(O)(c4ccc(OC)cc4)CC3)c2c1` [Compound 148]: in assay [1], the “48 hrs (morphology observations after 48 hours)” value came out at 0 and the cytotoxicity at 40 µM came to 0%.

Regarding `CCc1ccc(C2(O)CCN(c3c(S(=O)(=O)c4ccc(OC)cc4)cnc4ccc(OC(F)(F)F)cc34)CC2)cc1` [Compound 129], in assay [1], the “48 hrs (morphology observations after 48 hours)” value came to 0 and the cytotoxicity at 40 µM stood at 0%.

Consider `CCOC(=O)c1ccc2ncc(S(=O)(=O)c3ccc(CC)cc3)c(N3CCC(O)(c4ccc(CC)cc4)CC3)c2c1` [Compound 128], for which, in assay [1], the “48 hrs (morphology observations after 48 hours)” value worked out at 0 and the cytotoxicity at 40 µM was determined as 10%.

On to `CCOC(=O)c1ccc2ncc(S(=O)(=O)c3ccc(OC)cc3)c(N3CCC(N4CCCCC4)CC3)c2c1` [Compound 136], for which, in assay [1], the “48 hrs (morphology observations after 48 hours)” value turned out to be 0 and the cytotoxicity at 40 µM is 30%.

Regarding `CCOC(=O)c1ccc2ncc(S(=O)(=O)c3ccc(CC)cc3)c(N3CCC(O)(c4cccc(OC)c4)CC3)c2c1` [Compound 149], in assay [1], the “48 hrs (morphology observations after 48 hours)” value was “* (50% or less of cells vesicularize in cell shape)” and the cytotoxicity at 40 µM was found to be 20%.

`COc1ccc(S(=O)(=O)c2cnc3ccc(SC)cc3c2N2CCC(N3CCC(O)CC3)CC2)cc1OC` [Compound 153]: in assay [1], the “48 hrs (morphology observations after 48 hours)” value was “* (50% or less of cells vesicularize in cell shape)” and the cytotoxicity at 40 µM was 20%.

Consider `CCCCOc1ccc2ncc(S(=O)(=O)c3ccc(OC)c(OC)c3)c(N(CC)CC)c2c1` [Compound 123], for which, in assay [1], the “48 hrs (morphology observations after 48 hours)” value came out at 0 and the cytotoxicity at 40 µM was found to be 20%.

For the molecule `CCOC(=O)c1ccc2ncc(S(=O)(=O)c3ccc(CC)cc3)c(N3CCC(OCCN(CC)CC)CC3)c2c1` [Compound 132], in assay [1], the “48 hrs (morphology observations after 48 hours)” value is “* (50% or less of cells vesicularize in cell shape)” and the cytotoxicity at 40 µM is 40%.

As for `CCOC(=O)c1ccc2ncc(S(=O)(=O)c3ccc(OC)cc3)c(N3CCC(N4CCC(O)CC4)CC3)c2c1` [Compound 138], in assay [1], the “48 hrs (morphology observations after 48 hours)” value was found to be 0 and the cytotoxicity at 40 µM was found to be 20%.

Regarding `CCCCN(CCCC)c1c(S(=O)(=O)c2ccc(OC)c(OC)c2)cnc2ccc(SC)cc12` [Compound 124], in assay [1], the “48 hrs (morphology observations after 48 hours)” value is 0 and the cytotoxicity at 40 µM was 20%.

`CCOC(=O)c1ccc2ncc(S(=O)(=O)c3ccc(OC)cc3)c(N3CCCN(C)CC3)c2c1` [Compound 144]: in assay [1], the “48 hrs (morphology observations after 48 hours)” value was found to be 0 and the cytotoxicity at 40 µM was 30%.

For the molecule `CCOC(=O)c1ccc2ncc(S(=O)(=O)c3ccc(OC)cc3)c(N3CCCC(O)C3)c2c1` (stereo not shown) [Compound 137], in assay [1], the “48 hrs (morphology observations after 48 hours)” value turned out to be 0 and the cytotoxicity at 40 µM was determined as 40%.

Consider `CCc1ccc(S(=O)(=O)c2cnc3ccc(OC(F)(F)F)cc3c2N2CCC(O)(c3cccc(OC)c3)CC2)cc1` [Compound 150], for which, in assay [1], the “48 hrs (morphology observations after 48 hours)” value is given as 0 and the cytotoxicity at 40 µM was determined as 10%.

As to `CCOC(=O)c1ccc2ncc(S(=O)(=O)c3ccc(CC)cc3)c(N3CCC(N4CCC(O)CC4)CC3)c2c1` [Compound 130], in assay [1], the “48 hrs (morphology observations after 48 hours)” value turned out to be 0 and the cytotoxicity at 40 µM is 40%.

Regarding `CCCCOc1ccc(S(=O)(=O)c2cnc3ccc(SC)cc3c2N2CCCN(CCN3CCCC3)CC2)cc1` [Compound 207], in assay [1], the “48 hrs (morphology observations after 48 hours)” value is “**** (100% of endothelial cells vesicularize in cell shape and look flattened in morphology (indicating disintegration of the cell body))”; the cytotoxicity at 40 µM worked out at 100%.
